Laboratory results published in patent publication US8729034B2, “Pharmaceutical composition having virucidal and spermicidal activity” (priority 2007, dated 2014).
“Also recorded” adds a separate entry of the source. Like-named read-outs stand apart in the source and are kept apart here.

Tests used:
female rabbits = assay: Contraceptive efficacy following intravaginal application in rabbits; format: in vivo, New Zealand Rabbits; settings: intra-vaginal
Procedure: Healthy virgin, nulliparous female rabbits were primed with PMSG (200 i.u.; i.p.; 96 hrs prior to testing) to induce ovulation. Serial dilutions (2.5 mg/ml, 10 mg/ml, 25 mg/ml and 50 mg/ml) of Ac-B in KY-jelly was prepared to be used as test solutions and only KY-jelly was used for control group. Two ml of test/control solution was introduced 6-8 cm deep into the vagina of each rabbit with by the syringe with gavaging needle. The animal was held in supine position for about five minutes and then hand-mated by the selected proven bucks. The buck was allowed one-time mating. To ensure ovulation 100 i.u. of hCG was administered through the marginal ear vein of each participating doe. The vaginal lavage of the mated doe was examined under a microscope. The presence of spermatozoa in the lavage was considered as confirmed mating. The mated does were kept in separate cages to complete their gestation period and the number of delivered pups was recorded. The mean value of the pups was calculated to determine the contraceptive potential.

human sperm = assay: Modified Kremer-Test, cervical mucus penetration (Experiment B); format: cell-based; settings: treated at MEC; 30 minutes at 37 degree C
Source text: A modified Kremer-Test was used for assessment of cervical mucus penetrating capacity of treated sperm. A drop of human mid-cycle cervical mucus was placed on a slide and flattened by a cover slip (22 mm×22 mm). A drop of human sperm suspension treated with the test compounds (at MEC) was deposited at the side of the cover slip and in contact with the edge, the sperm suspension moved in under the cover slip by capillary force and a clear interface was obtained between the sperm suspension and the cervical mucus. The slide preparation was placed within a CO2 incubator at 37 degree C. for 30 minutes. Suitable control sets were prepared side by side. Each preparation was examined under a phase contrast microscope to observe the entry of spermatozoa into the cervical mucus zone.

HIV = assay: Inactivation of HIV in vitro (summary statements); format: cell-based
Procedure: (§1) Human CD4+ T cell line CEM-GFP cells were infected with HIV-1 NL-4.3 virus pretreated without or with Ac-B at varying concentrations (1 hour at 37 degree C.) at a multiplicity of infection (MOI) of 0.01. The cells were then cultured in the presence or absence of Ac-B for up to 7 days post infection. Virus production was analyzed in the culture supernatant on day-7 post infection by p24 antigen capture ELISA
P4 (Hela-CD4-LTR-β Gal) cells were infected with 0.05 MOI of NL4.3 virus pretreated without or with Ac-B at varying concentrations (1 hour at 37 degree C.) followed by incubation for 48 hours in the presence or absence of Ac-B at a concentration of 0.5 to 2.5 microgram per ml. Virus production was analyzed by ELISA of p24 antigen in the culture supernatant. Viral transmission in the transfected cells was evaluated by X-gal staining, in which an antiretroviral therapeutic drug, Azidothymidine (AZT) was used as positive control.

human spermatozoa [1] = assay: Penetrak Test (bovine cervical mucus penetration test); format: cell-based; settings: treated at MEC, washed; 1 hour; BWW control about 27(±3) mm
Procedure: The bovine cervical mucus penetration test was performed using the Penetrak kit (Serono Diagnostics, Allentown, Pa.).
Working suspension of human spermatozoa, prepared as above was treated in vitro with Ac-B at MEC, washed and resuspended in pre-equilibrated BWW medium. For the negative control set, same treatment was given to the sperms in BWW medium. Flat-capillary tubes filled with periovulatory mid-cycle bovine cervical mucus, in duplicate, were thawed at room temperature for 30 minutes and snapped at the red score mark above the mucus meniscus. The cut end was placed in tube containing treated/control washed sperm suspension and placed inside a CO2 incubator for 1 hour. The capillary tubes were then taken out, cleaned to remove superficially attached sperms, placed on a calibrated slide and examined by phase contrast microscopy (at ×400). The vanguard sperm was located and the distance (in mm) covered by it was measured to score the penetrating capacity of a sperm of the test sets.

[2] = system: Salmonella typhimurium TA100; assay: Bacterial reverse mutation assay (MUTA-CHROMOPLATE kit)
Source text: Ac-B was examined for its ability to produce mutations/revert mutations in a bacterial reverse mutation assay using amino acid-requiring strain of Salmonella typhimurium (S. typhimurium) TA100 and the result was compared with a known mutagen (Na-azide). A commercial kit (The MUTA-CHROMOPLATE) from M/s Environmental Biodetection Products Inc. Ontario, Canada, was used. Suspensions of bacterial cells were exposed to the test substance in the presence and in the absence of an exogenous metabolic activation system. After 5 days of incubation, revertant colonies were detected by the change of colour from blue to yellow on solvent control plates. All yellow, partially yellow or turbid wells were scored as positive, while all purple wells were scored as negative. Number of positive wells for each plate was recorded, their number was counted and compared to that of spontaneous revertant colonies. The “Background” (i.e. no test material added) plate was used as reference for the level of spontaneous or background mutation of the assay organism. The statistical difference was determined using a table provided with the kit.
Score of mutagenicity as per the set criteria of Muta-Chromoplate test kit.

human spermatozoa [3] = assay: Motility revival test (Experiment A); format: cell-based; settings: human spermatozoa treated at MEC, washed, incubated 30-60 minutes at 37 degree C
Procedure: Human spermatozoa, treated with Ac-B at MEC and BWW control set were washed twice in pre-equilibrated BWW medium, re-suspended in fresh BWW medium and again incubated in a CO2-incubator at 37 degree C. for 30-60 minutes. At the end of the incubation, wet-preparation of spermatozoa was made from each set on a glass slide. The preparation was examined under a phase contrast microscope (at ×400) to note reversal of motility in 10 fields-of-view.

HIV-1 NL-4.3 virus = format: cell-based; settings: for Percentage inhibition of hiv growth in CEM-GFP T cell line, Without Pretreatment: untreated virus
Procedure: as §1

Acaciaside-B [Ac-B]
Mean numbers of pups delivered (female rabbits; 2 ml of 2.5 mg/ml Acaciaside-B in K-Y jelly (n = 5)): 3.4 | Mean numbers of pups delivered (female rabbits; 2 ml of 10 mg/ml Acaciaside-B in K-Y jelly (n = 5)): 2.2 | Mean numbers of pups delivered (female rabbits; 2 ml of 25 mg/ml Acaciaside-B in K-Y jelly (n = 5)): 0.2 | Mean numbers of pups delivered (female rabbits; 2 ml of 50 mg/ml Acaciaside-B in K-Y jelly (n = 5)): 0.0 | Entry of treated spermatozoa into human cervical mucus (human sperm): none of them crossed into the interface | Dose level preventing HIV infection in vitro (HIV): greater than or equal to 1.0 microgram per ml | Penetration of vanguard sperm into bovine cervical mucus column (human spermatozoa [1]): capillary was devoid of sperm inside the mucus column | Overall mutagenicity result ([2]; Ames Test): non-mutagenic | No. of '+' wells (Muta-Chromoplate score) ([2]; Background = 20, Blank = 0): 18 | Revival of motility after washing and re-incubation (human spermatozoa [3]): no sign for revival of motility; also recorded: irreversible | Percentage inhibition of hiv growth in CEM-GFP T cell line, Without Pretreatment (HIV-1 NL-4.3 virus; Ac-B 0.1 microgram per ml, day-7 p24): 0% | Percentage inhibition of hiv growth in CEM-GFP T cell line, Pretreatment with Ac-B (HIV-1 NL-4.3 virus; Ac-B 0.1 microgram per ml, virus pretreated 1 hour at 37 degree C, day-7 p24): 70.5% | Percentage inhibition of hiv growth in CEM-GFP T cell line, Without Pretreatment (HIV-1 NL-4.3 virus; Ac-B 0.2 microgram per ml): 0% | Percentage inhibition of hiv growth in CEM-GFP T cell line, Pretreatment with Ac-B (HIV-1 NL-4.3 virus; Ac-B 0.2 microgram per ml, virus pretreated): 77.8% | Percentage inhibition of hiv growth in CEM-GFP T cell line, Without Pretreatment (HIV-1 NL-4.3 virus; Ac-B 0.25 microgram per ml): 0% | Percentage inhibition of hiv growth in CEM-GFP T cell line, Pretreatment with Ac-B (HIV-1 NL-4.3 virus; Ac-B 0.25 microgram per ml, virus pretreated): 92% | Percentage inhibition of hiv growth in CEM-GFP T cell line, Without Pretreatment (HIV-1 NL-4.3 virus; Ac-B 0.5 microgram per ml): 36.1% | Percentage inhibition of hiv growth in CEM-GFP T cell line, Pretreatment with Ac-B (HIV-1 NL-4.3 virus; Ac-B 0.5 microgram per ml, virus pretreated): 90.6% | Percentage inhibition of hiv growth in CEM-GFP T cell line, Without Pretreatment (HIV-1 NL-4.3 virus; Ac-B 1 microgram per ml): 60.5% | Percentage inhibition of hiv growth in CEM-GFP T cell line, Pretreatment with Ac-B (HIV-1 NL-4.3 virus; Ac-B 1 microgram per ml, virus pretreated): 99.73% | Percentage inhibition of hiv growth in CEM-GFP T cell line, Without Pretreatment (HIV-1 NL-4.3 virus; Ac-B 1.5 microgram per ml): 100% | Percentage inhibition of hiv growth in CEM-GFP T cell line, Pretreatment with Ac-B (HIV-1 NL-4.3 virus; Ac-B 1.5 microgram per ml, virus pretreated): 100% | Percentage inhibition of hiv growth in CEM-GFP T cell line, Without Pretreatment (HIV-1 NL-4.3 virus; Ac-B 2 microgram per ml): 100% | Percentage inhibition of hiv growth in CEM-GFP T cell line, Pretreatment with Ac-B (HIV-1 NL-4.3 virus; Ac-B 2 microgram per ml, virus pretreated): 100% | Percentage inhibition of hiv growth in CEM-GFP T cell line, Without Pretreatment (HIV-1 NL-4.3 virus; Ac-B 2.5 microgram per ml): 100% | Percentage inhibition of hiv growth in CEM-GFP T cell line, Pretreatment with Ac-B (HIV-1 NL-4.3 virus; Ac-B 2.5 microgram per ml, virus pretreated): 100% | Inhibition of viral transmission, untreated virus (HIV-1 NL-4.3 virus; cells infected with untreated virus, cultured in the presence of Ac-B 0.1 to 2.5 microgram per ml): only partial inhibition
